Where a SMILES comes first, the peptide text is derived from it. [ ]: non-standard residue; d: D form. The star is where a group is joined. Tyr(Ph) = N[C@@H](Cc1ccc(Oc2ccccc2)cc1)C(=O)O; His(π-Bn) = N[C@@H](Cc1cncn1Cc1ccccc1)C(=O)O; Phe(4-NH2) = Nc1ccc(C[C@H](N)C(=O)O)cc1; 3Pal = N[C@@H](Cc1cccnc1)C(=O)O; Ac6c = NC1(C(=O)O)CCCCC1; Bn = c1ccc(C*)cc1
Molecular target: T1, human glucagon-like peptide-1 receptor (GLP-1R) (Homo sapiens, UniProt P43220)
T1 construct: host or cells: CHO chAMPion cells
Test: Human GLP-1 receptor cell-based assay (flash luminescence, Target Activation phase)
Settings: CHO chAMPion cells stably co-expressing human GLP-1R, Photina and cAMP-activated calcium channel; agonist activity; normalization by forskolin at 10 μM; ^a) values from single experiment; read-out: EC50 (μM) Target Activation (TA)
From the text: CHO chAMPion cells (Axxam SpA; S. Corazza, Assay Drug Dev. Technol. 2009, 7, 304-307) stably co-expressing the human glucagon-like peptide-1 receptor (GLP-1R), the Ca^2+-sensitive photoprotein PHOTINA® (S. Bovolenta et al., J. Biomol. Screen. 2007, 12, 694-704) and a mutated cAMP-activated calcium ion channel (WO2004/083803 A2) were used to monitor GLP-1R signaling after stimulation with an agonist. Activation of the Gas-coupled GPCR GLP-1R was monitored by measuring the flash luminescence of the Ca^2+-sensitive photoprotein as reporter system with FLIPR^TETRA screening instrumentation (Molecular Devices) upgraded with an ICCD Camera (MDC). For data quality check and data analysis the Genedata SCREENER® software was used.
The reference agonist GLP-1 (glucagon-like peptide-1 amide fragment 7-36) and forskolin were purchased from Sigma (cat. G8147 and F6886, respectively) and prepared according to each ligand's specifications. All handling of ligands were done to ensure proper control throughout the experiments. The steps of the implemented workflow and data analysis are mainly as follows:
Stably transfected chAMPion cells are seeded 10000 c/w in 384 MTP in Dulbecco's MEM/nutrient mix F12 (BioWhittaker cat. BE04-687F/U1; 500 mL) supplemented with sodium pyruvate (BioWhittaker cat. BE13-115E; 5 mL of 100 mM solution), HEPES (BioWhittaker cat. BE17-737E; 6.5 mL of 1M solution), sodium bicarbonate (BioWhittaker cat. BE17-613E; 25 mL of 7.5% solution), fetal bovine serum (Euroclone cat. ECS 0180L; 50 mL), penicillin-streptomycin (BioWhittaker cat. DE17-602E; 5 mL of 100×solution), 1 mg/mL G418 (selection antibiotic for GLP-1R) and 200 μg/mL hygromycin in 25 μL/well for 24 hours. On the day of the experiment, plates are removed from the incubator, freed from the growth medium, equilibrated at room temperature for 1 h, loaded with 30 μl/well of Ca^2+ free Tyrode's buffer containing 20 μM coelentrazine and 500 μM IBMX, and incubated for 4 hours at room temperature.
All compounds were tested at 8 concentrations, starting from 50 μM in quadruplicate, intra-plate (dilution step 1:2.15) to determine EC50 values. After incubation, the volume in all the wells is flattened to 20 αL by aspiration with a CYBIO®-VARIO pipettor. First Injection (10 μL of test compounds in Ca^2+ free Tyrode's buffer, DMSO 0.5% v/v and BSA 0.01%; or 10 μL of reference compounds GLP-1 or forskolin in Ca′ free Tyrode's buffer, DMSO 0.5% v/v and BSA 0.01%) is performed by the FLIPR^TETRA and the kinetic response is optionally monitored over a period of 60 seconds. Incubation for 30 minutes at room temperature is followed by the Second Injection (Tyrode's buffer+10 mM CaCl2)) and the kinetic response is monitored over a period of 60 seconds.
The kinetic response is divided into two distinct phases: monitoring the kinetic response after the First Injection, termed Compound Addition (CA), and monitoring the kinetic response after the Second Injection of 10 mM CaCl2, termed Target Activation (TA). Agonist activity of compounds is evaluated in the Target Activation (TA) phase and it is based on normalization to TA activation by forskolin at 10 μM or GLP-1 at 3.16 nM (EC100)
A good correlation was observed between EC50, data normalized by forskolin and by GLP-1.

T1 sequence (P43220 24-463): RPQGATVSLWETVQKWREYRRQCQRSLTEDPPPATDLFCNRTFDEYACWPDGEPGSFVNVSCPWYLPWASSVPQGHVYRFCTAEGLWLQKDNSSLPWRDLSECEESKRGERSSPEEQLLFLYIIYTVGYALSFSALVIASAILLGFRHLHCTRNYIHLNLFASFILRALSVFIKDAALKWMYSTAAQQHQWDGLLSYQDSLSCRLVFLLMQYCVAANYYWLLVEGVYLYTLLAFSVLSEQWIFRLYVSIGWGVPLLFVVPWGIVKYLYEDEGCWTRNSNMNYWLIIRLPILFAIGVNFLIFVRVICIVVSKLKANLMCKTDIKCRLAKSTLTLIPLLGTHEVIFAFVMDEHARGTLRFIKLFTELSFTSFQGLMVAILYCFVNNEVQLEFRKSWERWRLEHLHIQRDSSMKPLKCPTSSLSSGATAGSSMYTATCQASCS

SMILES | EC50 [µM]
C[C@@H]1NC(=O)[C@H](Cc2ccc(O)cc2)NC(=O)[C@H](CCC(N)=O)NC(=O)[C@H](Cc2ccccc2)NC(=O)[C@H](Cc2ccccc2)NC(=O)C2(CCCCC2)NC(=O)[C@H]2CCCN2C(=O)[C@H](Cc2ccc(O)cc2)NC(=O)[C@H](CCC(=O)O)NC(=O)[C@H](Cc2c[nH]c3ccccc23)NC1=O [Ex. 1, cyclo(-Phe-Phe-Gln-Tyr-Ala-Trp-Glu-Tyr-^DPro-Chx-)] (cyclo(FFQYAWEY[dP][Ac6c])) | 0.09 ± 0.05
C[C@@H]1NC(=O)[C@H](Cc2ccc(O)cc2)NC(=O)[C@H](CCC(N)=O)NC(=O)[C@H](Cc2cncn2Cc2ccccc2)NC(=O)[C@H](Cc2ccccc2)NC(=O)C2(CCCCC2)NC(=O)[C@H]2CCCN2C(=O)[C@H](Cc2ccc(O)cc2)NC(=O)[C@H](CCC(=O)O)NC(=O)[C@H](Cc2c[nH]c3ccccc23)NC1=O [Ex. 4, cyclo(-Phe-His(Bn)-Gln-Tyr-Ala-Trp-Glu-Tyr-^DPro-Chx-)] (cyclo(F[His(π-Bn)]QYAWEY[dP][Ac6c])) | 0.09 ± 0.02
CC(C)C[C@@H]1NC(=O)[C@H](CC(C)C)NC(=O)[C@H](CCC(=O)O)NC(=O)[C@H](Cc2ccccc2)NC(=O)C2(CCCCC2)NC(=O)[C@H]2CCCN2C(=O)[C@H](Cc2ccccc2)NC(=O)[C@H](CCC(=O)O)NC(=O)[C@H](Cc2c[nH]c3ccccc23)NC(=O)[C@H](C)NC1=O [Ex. 43, cyclo(-Phe-Glu-Leu-Leu-Ala-Trp-Glu-Phe-^DPro-Chx-)] (cyclo(FELLAWEF[dP][Ac6c])) | 4.5 ± 2.6
C[C@@H]1NC(=O)[C@H](Cc2ccc(O)cc2)NC(=O)[C@H](CCC(N)=O)NC(=O)[C@H](Cc2cccnc2)NC(=O)[C@H](Cc2ccccc2)NC(=O)C2(CCCCC2)NC(=O)[C@H]2CCCN2C(=O)[C@H](Cc2ccc(O)cc2)NC(=O)[C@H](CCC(=O)O)NC(=O)[C@H](Cc2c[nH]c3ccccc23)NC1=O [compound 2, cyclo(-Phe-3Pal-Gln-Tyr-Ala-Trp-Glu-Tyr-^DPro-Chx-)] (cyclo(F[3Pal]QYAWEY[dP][Ac6c])) | 0.28 ± 0.26
C[C@@H]1NC(=O)[C@H](Cc2ccc(O)cc2)NC(=O)[C@H](CCC(N)=O)NC(=O)[C@H](Cc2ccc(N)cc2)NC(=O)[C@H](Cc2ccccc2)NC(=O)C2(CCCCC2)NC(=O)[C@H]2CCCN2C(=O)[C@H](Cc2ccc(O)cc2)NC(=O)[C@H](CCC(=O)O)NC(=O)[C@H](Cc2c[nH]c3ccccc23)NC1=O [compound 3, cyclo(-Phe-Phe(4NH2)-Gln-Tyr-Ala-Trp-Glu-Tyr-^DPro-Chx-)] (cyclo(F[Phe(4-NH2)]QYAWEY[dP][Ac6c])) | 0.18 ± 0.18
C[C@@H]1NC(=O)[C@H](Cc2ccc(O)cc2)NC(=O)[C@H](CCC(N)=O)NC(=O)[C@H](Cc2ccc(OCc3ccccc3)cc2)NC(=O)[C@H](Cc2ccccc2)NC(=O)C2(CCCCC2)NC(=O)[C@H]2CCCN2C(=O)[C@H](Cc2ccc(O)cc2)NC(=O)[C@H](CCC(=O)O)NC(=O)[C@H](Cc2c[nH]c3ccccc23)NC1=O [compound 5, cyclo(-Phe-Tyr(Bn)-Gln-Tyr-Ala-Trp-Glu-Tyr-^DPro-Chx-)] (cyclo(FY(Bn)QYAWEY[dP][Ac6c])) | 0.15 ± 0.05
C[C@@H]1NC(=O)[C@H](Cc2ccc(O)cc2)NC(=O)[C@H](CCC(N)=O)NC(=O)[C@H](Cc2ccc(Oc3ccccc3)cc2)NC(=O)[C@H](Cc2ccccc2)NC(=O)C2(CCCCC2)NC(=O)[C@H]2CCCN2C(=O)[C@H](CCCNC(=N)N)NC(=O)[C@H](CCC(=O)O)NC(=O)[C@H](Cc2c[nH]c3ccccc23)NC1=O [compound 6, cyclo(-Phe-Tyr(Ph)-Gln-Tyr-Ala-Trp-Glu-Arg-^DPro-Chx-)] (cyclo(F[Tyr(Ph)]QYAWER[dP][Ac6c])) | 0.19 ± 0.12
C[C@@H]1NC(=O)[C@H](Cc2ccc(O)cc2)NC(=O)[C@H](CCC(N)=O)NC(=O)[C@H](Cc2ccc(Oc3ccccc3)cc2)NC(=O)[C@H](Cc2ccccc2)NC(=O)C2(CCCCC2)NC(=O)[C@H]2CCCN2C(=O)[C@H](Cc2ccc(O)cc2)NC(=O)[C@H](CCC(=O)O)NC(=O)[C@H](Cc2c[nH]c3ccccc23)NC1=O [compound 7, cyclo(-Phe-Tyr(Ph)-Gln-Tyr-Ala-Trp-Glu-Tyr-^DPro-Chx-)] (cyclo(F[Tyr(Ph)]QYAWEY[dP][Ac6c])) | 0.57 ± 0.58
